Laboratory results as given in ChEMBL document CHEMBL5352428, “Covalent inhibitors of bacterial peptidoglycan biosynthesis enzyme MurA with chloroacetamide warhead” (Eur J Med Chem, 2022).
Values after ≈ are worked out from the molar mass of the structure shown. Active and inactive are the calls of the source. No cut-off for these calls is given here.

What was measured:
[1] = molecular target: UDP-N-acetylglucosamine 1-carboxyvinyltransferase (Escherichia coli K-12) (UniProt P0A749); assay: Inhibition of recombinant Escherichia coli MurA expressed in Escherichia coli NiCo21 assessed as residual activity using UNAG and PEP as substrate at 500 uM preincubated for 30 mins in presence of UNAG followed by PEP substrate addition and measured after 15 mins by malachite green based colorimetric assay; conditions: time 45.0 min
Sequence of UDP-N-acetylglucosamine 1-carboxyvinyltransferase (Escherichia coli K-12) (P0A749 whole entry): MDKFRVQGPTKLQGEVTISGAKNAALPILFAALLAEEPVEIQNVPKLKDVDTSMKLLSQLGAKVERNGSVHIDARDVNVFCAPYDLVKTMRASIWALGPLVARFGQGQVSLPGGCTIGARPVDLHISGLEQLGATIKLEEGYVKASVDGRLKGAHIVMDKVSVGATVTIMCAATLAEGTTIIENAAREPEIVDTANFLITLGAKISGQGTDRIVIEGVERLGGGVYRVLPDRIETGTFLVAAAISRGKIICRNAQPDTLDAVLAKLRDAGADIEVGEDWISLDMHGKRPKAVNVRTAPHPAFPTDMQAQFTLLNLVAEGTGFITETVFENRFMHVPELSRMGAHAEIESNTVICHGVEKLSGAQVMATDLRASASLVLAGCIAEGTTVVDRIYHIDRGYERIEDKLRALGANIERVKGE

[2] = Thiol reactivity of compound at pH 7.4 buffer assessed as fold decrease by measuring second order rate constant at 100 uM and measured for 4 hrs every 5 mins in presence of DTNB and TCEP by microplate reader analysis relative to Iodoacetamide; type: physicochemical; conditions: pH 7.4, 4 h
[3] = Thiol reactivity of compound at pH 7.4 buffer at 100 uM and measured for 4 hrs every 5 mins in presence of DTNB and TCEP by microplate reader analysis; type: physicochemical; conditions: pH 7.4, 4 h
Escherichia coli [4] = assay: Antibacterial activity against Escherichia coli ATCC 25922 assessed as bacterial growth inhibition incubated for 24 hrs by broth dilution method; type: functional
Staphylococcus aureus [5] = assay: Antibacterial activity against Staphylococcus aureus ATCC 29213 assessed as bacterial growth inhibition incubated for 24 hrs by broth dilution method; type: functional
[6] = molecular target: UDP-N-acetylglucosamine 1-carboxyvinyltransferase (Escherichia coli K-12) (UniProt P0A749); assay: Binding affinity to UNAG activated recombinant Escherichia coli MurA Cys115 residue at 5 mM incubated for 30 mins in presence of UNAG by LC-MS/MS analysis
Staphylococcus aureus [7] = assay: Antibacterial activity against Staphylococcus aureus ATCC 29213 assessed as bacterial growth inhibition at <= 128 ug/ml incubated for 24 hrs by broth dilution method; type: functional, organism-based; conditions: dose <= 128.0 µg/ml
[8] = molecular target: T1, UDP-N-acetylglucosamine 1-carboxyvinyltransferase (Escherichia coli K-12, UniProt P0A749); assay: Inhibition of recombinant Escherichia coli MurA expressed in Escherichia coli NiCo21 using UNAG and PEP as substrate preincubated for 30 mins in presence of UNAG followed by PEP substrate addition and measured after 15 mins by malachite green based colorimetric assay
T1 sequence (P0A749 whole entry): as above

[9] = molecular target: T1, UDP-N-acetylglucosamine 1-carboxyvinyltransferase; assay: Inhibition of recombinant Escherichia coli MurA expressed in Escherichia coli NiCo21 using UNAG and PEP as substrate preincubated for 15 mins in presence of UNAG followed by PEP substrate addition and measured after 15 mins by malachite green based colorimetric assay
Escherichia coli [10] = assay: Antibacterial activity against Escherichia coli ATCC 25922 assessed as bacterial growth inhibition at <=128 ug/ml incubated for 24 hrs by broth dilution method; type: functional, organism-based; conditions: dose <= 128.0 µg/ml
[11] = molecular target: UDP-N-acetylglucosamine 1-carboxyvinyltransferase (Escherichia coli K-12) (UniProt P0A749); assay: Inhibition of recombinant Escherichia coli MurA expressed in Escherichia coli NiCo21 using UNAG and PEP as substrate and measured for 15 mins by malachite green based colorimetric assay
[12] = molecular target: UDP-N-acetylglucosamine 1-carboxyvinyltransferase (Escherichia coli K-12) (UniProt P0A749); assay: (§1) Irreversible inhibition of recombinant Escherichia coli MurA expressed in Escherichia coli NiCo21 assessed as residual activity using UNAG and PEP as substrate at 400 uM preincubated for 30 mins in presence of UNAG followed by 100 fold dilution and PEP substrate addition and measured after 15 mins by malachite green based colorimetric assay; conditions: time 45.0 min
[13] = molecular target: UDP-N-acetylglucosamine 1-carboxyvinyltransferase (Escherichia coli K-12) (UniProt P0A749); assay: as §1, with “NiCo21” for “NiCo21 assessed as residual activity”, “assessed as second-order rate constant for enzyme inactivation, ratio of Kinact/Ki” for “at 400 uM”; conditions: time 45.0 min
[14] = molecular target: UDP-N-acetylglucosamine 1-carboxyvinyltransferase (Escherichia coli K-12) (UniProt P0A749); assay: as §1, with “by” for “by 100 fold dilution and”; conditions: time 45.0 min

In the case of `O=C(CCl)N1CCN(CCC2CCCCC2)CC1`, the Activity [1] is reported as 81%, the “fold change (FC)” value [2] is reported as 3 and the Drug metabolism [3] is reported as “Metabolite_Detected”. The MIC (Escherichia coli [4]) was 16 µg/mL (≈ 58.6 µM) and the MIC (Staphylococcus aureus [5]) was 4 µg/mL (≈ 14.7 µM).

For `O=C(CCl)NC1CCCC2CCCCC21` (stereo unspecified), the Activity [6] was “Active”, the “fold change (FC)” value [2] was 33 and the Activity (Staphylococcus aureus [7]) was “inactive”. For the same compound, the IC50 [8] was 39 µM, the IC50 [9] was 400 µM and the Drug metabolism [3] was “Metabolite_Notdetected”. For the same compound, the Activity (Escherichia coli [10]) was “inactive”, the inhibition [11] was “inactive” and the Activity [12] was “inactive”. The Ratio [13] was 4.78 10^-3/µM/min and the Activity [14] was 1.6%.
